From patent publication US4387106A, “Method of treating atherosclerosis with di(aralkyl)ureas and di(aralkyl)thioureas” (American Cyanamid Company, priority 1982, dated 1983)

Columns and labels:
[1] = system: Cholesterol absorption; details: po, 336 h
Experimental: Inhibition of cholesterol absorption was determined by feeding male Sprague-dawley rats weighing 150-170 g. a 1% cholesterol:0.5% cholic acid diet for 2 weeks. The diet also contained compounds being tested at doses of between 0.01% and 0.1% of the diet. […] Feces were collected for each 24 hour period for the remaining 5 days during which the rats were maintained on the 1% cholesterol:0.5% cholic acid plus test compound diet. Fecal ^14 C-neutral sterols were extracted with petroleum ether from saponified feces by the method of Grundy, S. M. et. al., J. Lipid Res., 6, 397 (1965) and counted in a scintillation counter. Acidic sterols (bile acids) were extracted by acidifying the saponified feces and extracting in chloroform:methanol (2:1) and counting the chloroform phase in a scintillation counter. Total extraction of radioactivity (98-100%) from saponified feces is realized by this procedure.
The effect of test compounds on cholesterol absorption was determined by:
1. increase in excreted ^14 C-neutral sterol
2. decrease in excreted ^14 C-acidic sterol
3. decrease in ^14 C-cholesterol or ^14 C-cholesteryl ester in the liver.
4. decrease in ^14 C-cholesterol or ^14 C-cholesteryl ester in the serum.

[2] = biological target: T1, fatty acyl CoA:cholesterol acyl transferase (ACAT) (Rattus norvegicus, UniProt O70536); experiment: In vitro inhibition of fatty acyl CoA:cholesterol acyl transferase (ACAT), rat adrenal supernatant; type: biochemical; details: final concentration 5.2 μg./ml., pH 7.4, 37° C., oleoyl CoA (14C)
T1 construct: The supernatant, containing the microsomal fraction, served as the source of the cholesterol-esterifying enzyme; from tissue; host or cells: rat adrenals, homogenate, 1000 x g supernatant containing the microsomal fraction
T1 sequence (O70536 1-545): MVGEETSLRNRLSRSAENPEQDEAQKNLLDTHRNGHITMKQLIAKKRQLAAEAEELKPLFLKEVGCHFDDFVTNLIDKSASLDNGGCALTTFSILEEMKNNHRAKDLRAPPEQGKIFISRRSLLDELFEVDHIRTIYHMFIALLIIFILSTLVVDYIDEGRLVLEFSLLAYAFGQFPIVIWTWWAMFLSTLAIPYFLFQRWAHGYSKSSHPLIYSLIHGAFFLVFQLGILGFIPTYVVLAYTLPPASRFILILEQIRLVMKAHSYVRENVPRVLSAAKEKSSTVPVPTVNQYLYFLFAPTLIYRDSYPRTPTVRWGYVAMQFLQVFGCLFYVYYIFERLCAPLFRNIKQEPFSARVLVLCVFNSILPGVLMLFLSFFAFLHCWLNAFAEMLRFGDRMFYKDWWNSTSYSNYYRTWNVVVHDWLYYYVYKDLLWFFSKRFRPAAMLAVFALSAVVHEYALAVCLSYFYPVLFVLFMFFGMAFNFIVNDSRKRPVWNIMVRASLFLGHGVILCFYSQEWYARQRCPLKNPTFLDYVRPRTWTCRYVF
Experimental: The compounds were tested for their ability to inhibit ACAT according to the following procedure:
Rat adrenals were homogenized in 0.2 M monobasic potassium phosphate buffer, pH 7.4, and centrifuged at 1000 times gravity for 15 minutes at 5° C. The supernatant, containing the microsomal fraction, served as the source of the cholesterol-esterifying enzyme, fatty acyl CoA:cholesterol acyl transferase (ACAT). A mixture comprising 50 parts of adrenal supernatant, 10 parts of albumin (BSA) (50 mg./ml.), 3 parts of test compound (final concentration 5.2 μg./ml.) and 500 parts of buffer was preincubated at 37° C. for 10 minutes. After treatment with 20 parts of oleoyl CoA (^14 C--0.4 μCi) the mixture was incubated at 37° C. for 10 minutes. A control mixture, omitting the test compound, was prepared and treated in the same manner. The lipids from the incubation mixture were extracted into an organic solvent and separated by thin-layer chromatography. The cholesteryl ester fraction was counted in a scintillation counter.

[3] = system: Cholesterol absorption; details: po, 0.03 % of diet, 336 h
Experimental: Compounds were tested in vitro for their ability to inhibit the enzyme fatty acyl CoA:cholesterol acyl transferase (ACAT) and in vivo for serum hypolipidemic activity as measured by their ability to inhibit lipid absorption in rats.
Inhibition of Cholesterol absorption was determined by feeding male Sprague-Dawley rats, weighing 150-170 g., A 1% cholesterol:0.5% cholic acid diet for 2 weeks. The diet also contained compounds being tested at a dose of 0.03% of the diet. Control rats were fed the same diet without any compound. At the end of the test, the rats were sacrificed by decapitation. Blood is collected, centrifuged at 1.5 kg times gravity for 10 minutes at 4° C., and the serum is then analyzed for cholesterol and triglycerides enzymatically by the method of Trinder, P., Analyst, 77, 321 (1952) on a Centrifichem 400 Analyzer. Livers are removed, a 0.4 g sample is taken from the center of the large lobe, and the sample is subjected to saponification using 25% saturated potassium hydroxide in ethanol. The resulting neutral sterols are extracted with petroleum ether and extract analyzed for cholesterol. The effectiveness of the compound in inhibiting cholesterol absorption is measured by the lowering of either serum cholesterol or liver cholesterol relative the values for control rats.

| Structure (SMILES) | Result (inhibition of cholesterol absorption, 14C-sterol excretion) [1] | inhibition at 5.2 µg/mL [2] [%] | Result (inhibition of cholesterol absorption: lowering of serum or liver cholesterol relative to control) [3] |
| --- | --- | --- | --- |
| Cc1cccc(NC(=O)N(Cc2ccccc2)Cc2ccccc2)c1C [1,1-Dibenzyl-3-(2,3-dimethylphenyl)urea] | Active | 88.1 | Active |
| Cc1cc(C)c(NC(=O)N(Cc2ccccc2)Cc2ccccc2)c(C)c1 [1,1-Dibenzyl-3-(2,4,6-trimethylphenyl)urea] | Active | 36.9 | Active |
| Cc1ccc(NC(=O)N(Cc2ccccc2)Cc2ccccc2)c(C)c1 [1,1-Dibenzyl-3-(2,4-dimethylphenyl)urea] | Active | 89.9 | Active |
| COc1ccc(C)cc1NC(=O)N(Cc1ccccc1)Cc1ccccc1 [1,1-Dibenzyl-3-(2-methoxy-5-methylphenyl)urea] | Active | 87.8 | Active |
| Cc1ccc(NC(=O)N(Cc2ccccc2)Cc2ccccc2)cc1C [1,1-Dibenzyl-3-(3,4-dimethylphenyl)urea] | Active | 71.8 | Active |
| Cc1ccc(NC(=O)N(Cc2ccccc2)Cc2ccccc2)cc1Cl [1,1-Dibenzyl-3-(3-chloro-4-methylphenyl)urea] | Active | 94 | Active |
| CCOC(=O)c1ccc(NC(=O)N(Cc2ccccc2)Cc2ccccc2)cc1 [1,1-Dibenzyl-3-(4-carboethoxyphenyl)urea] | – | 94.9 | Active |
| Cc1cc(Cl)ccc1NC(=O)N(Cc1ccccc1)Cc1ccccc1 [1,1-Dibenzyl-3-(4-chloro-2-methylphenyl)urea] | Active | 62.7 | Active |
| O=C(Nc1ccc(Cl)cc1C(F)(F)F)N(Cc1ccccc1)Cc1ccccc1 [1,1-Dibenzyl-3-(4-chloro-2-trifluoromethylphenyl)urea] | Active | 81.8 | Active |
| CCCCc1ccc(NC(=O)N(Cc2ccccc2)Cc2ccccc2)cc1 [1,1-Dibenzyl-3-(4-n-butylphenyl)urea] | – | 91.3 | Active |
| O=C(Nc1ccc(Oc2ccccc2)cc1)N(Cc1ccccc1)Cc1ccccc1 [1,1-Dibenzyl-3-(4-phenoxyphenyl)urea] | – | 94.3 | Active |
| Cc1ccc(Cl)cc1NC(=O)N(Cc1ccccc1)Cc1ccccc1 [1,1-Dibenzyl-3-(5-chloro-2-methylphenyl)urea] | Active | 71.3 | Active |
